# Publication PMC11249646, “Small-Molecule Disruptors of the Interaction between Calcium- and Integrin-Binding Protein 1 and Integrin αIIbβ3 as Novel Antiplatelet Agents” (ACS Pharmacology & Translational Science, 2024)
# Molecular target: T1, GST-CIB1 : F-scrambled peptide (Homo sapiens, UniProt Q99828)
# T1 construct: made in house; host or cells: BL-21 plus RIL cells (E. coli)
# T1 sequence (Q99828 1-191): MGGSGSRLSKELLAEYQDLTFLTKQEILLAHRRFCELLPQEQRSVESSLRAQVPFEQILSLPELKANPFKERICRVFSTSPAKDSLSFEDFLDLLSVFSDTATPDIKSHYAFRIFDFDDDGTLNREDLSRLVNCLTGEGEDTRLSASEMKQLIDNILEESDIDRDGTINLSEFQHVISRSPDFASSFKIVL
# Assay: FP scrambled-peptide counter screen, 384-well format
# Format: binding
# Conditions: F-scrambled peptide
row,SMILES,384-well COUNTERSCREEN Efficacy (%)
1,Cc1cc(NS(=O)(=O)c2ccc(NCCc3ccc(Cl)c(Cl)c3)cc2)no1.O=C(O)C(F)(F)F [NCGC00244100-02],23%
2,Cc1ccc(Cl)cc1NC(=O)c1nc[nH]c1C(=O)Nc1nc2ccccc2[nH]1 [NCGC00244259-01],48%
3,O=C(Cc1ccc(Cl)c(Cl)c1)Nc1ccc(S(=O)(=O)Nc2ccon2)cc1.O=C(O)C(F)(F)F [NCGC00244858-03],43%

# Same assay, conditions: F-scrambled peptide; *: Curve in opposite direction
row,SMILES,384-well COUNTERSCREEN Confirm?
1,Cc1cc(NS(=O)(=O)c2ccc(NCCc3ccc(Cl)c(Cl)c3)cc2)no1.O=C(O)C(F)(F)F [NCGC00244100-02],YES

# Same assay, conditions: F-scrambled peptide; read-out: 384-well COUNTERSCREEN IC50
row,SMILES,IC50
1,Cc1cc(NS(=O)(=O)c2ccc(NCCc3ccc(Cl)c(Cl)c3)cc2)no1.O=C(O)C(F)(F)F [NCGC00244100-02],> 120 µM
2,Cc1ccc(Cl)cc1NC(=O)c1nc[nH]c1C(=O)Nc1nc2ccccc2[nH]1 [NCGC00244259-01],15.8 µM
3,O=C(Cc1ccc(Cl)c(Cl)c1)Nc1ccc(S(=O)(=O)Nc2ccon2)cc1.O=C(O)C(F)(F)F [NCGC00244858-03],25.1 µM

# Molecular target: T2, CIB1 and αIIb interaction (CIB1-GST : F-αIIb peptide) (Homo sapiens, UniProt Q99828)
# T2 construct: made in house; host or cells: BL-21 plus RIL cells (E. coli)
# T2 sequence (Q99828 1-191): T1 sequence (Q99828 1-191)
# Assay: FP assay, 1536-well qHTS format (primary and confirmatory screen)
# Format: binding
# Conditions: confirmatory screen, YES/NO call
row,SMILES,CONFIRMATORY SCREEN Confirm?
1,Cc1cc(NS(=O)(=O)c2ccc(NCCc3ccc(Cl)c(Cl)c3)cc2)no1.O=C(O)C(F)(F)F [NCGC00244100-02],YES
2,Cc1ccc(Cl)cc1NC(=O)c1nc[nH]c1C(=O)Nc1nc2ccccc2[nH]1 [NCGC00244259-01],YES
3,O=C(Cc1ccc(Cl)c(Cl)c1)Nc1ccc(S(=O)(=O)Nc2ccon2)cc1.O=C(O)C(F)(F)F [NCGC00244858-03],YES

# Same assay, conditions: confirmatory screen, qHTS curve class; negative sign = inhibitory curve
row,SMILES,CONFIRMATORY SCREEN Curve Class
1,Cc1cc(NS(=O)(=O)c2ccc(NCCc3ccc(Cl)c(Cl)c3)cc2)no1.O=C(O)C(F)(F)F [NCGC00244100-02],-2.4
2,Cc1ccc(Cl)cc1NC(=O)c1nc[nH]c1C(=O)Nc1nc2ccccc2[nH]1 [NCGC00244259-01],-1.2
3,O=C(Cc1ccc(Cl)c(Cl)c1)Nc1ccc(S(=O)(=O)Nc2ccon2)cc1.O=C(O)C(F)(F)F [NCGC00244858-03],-1.4

# Same assay, conditions: confirmatory screen; negative = inhibition
row,SMILES,CONFIRMATORY SCREEN Efficacy (%)
1,Cc1cc(NS(=O)(=O)c2ccc(NCCc3ccc(Cl)c(Cl)c3)cc2)no1.O=C(O)C(F)(F)F [NCGC00244100-02],-36%
2,Cc1ccc(Cl)cc1NC(=O)c1nc[nH]c1C(=O)Nc1nc2ccccc2[nH]1 [NCGC00244259-01],-28%
3,O=C(Cc1ccc(Cl)c(Cl)c1)Nc1ccc(S(=O)(=O)Nc2ccon2)cc1.O=C(O)C(F)(F)F [NCGC00244858-03],-39%

# Same assay, conditions: confirmatory screen; read-out: CONFIRMATORY SCREEN IC50
row,SMILES,IC50
1,Cc1ccc(Cl)cc1NC(=O)c1nc[nH]c1C(=O)Nc1nc2ccccc2[nH]1 [NCGC00244259-01],7.9 µM
2,O=C(Cc1ccc(Cl)c(Cl)c1)Nc1ccc(S(=O)(=O)Nc2ccon2)cc1.O=C(O)C(F)(F)F [NCGC00244858-03],22.4 µM

# Same assay, conditions: qHTS FP screen hits, Table S2; negative = inhibition
row,SMILES,Efficacy (%)
1,Cc1cc(NS(=O)(=O)c2ccc(NCCc3ccc(Cl)c(Cl)c3)cc2)no1.O=C(O)C(F)(F)F [NCGC00244100-02],-22%

# Same assay, conditions: qHTS FP screen hits, Table S2; read-out: IC50
row,SMILES,IC50
1,Cc1cc(NS(=O)(=O)c2ccc(NCCc3ccc(Cl)c(Cl)c3)cc2)no1.O=C(O)C(F)(F)F [NCGC00244100-02],22.4 µM

# Same assay, conditions: qHTS primary screen hits, Table S2; negative = inhibition
row,SMILES,Efficacy (%)
1,Cc1ccc(Cl)cc1NC(=O)c1nc[nH]c1C(=O)Nc1nc2ccccc2[nH]1 [NCGC00244259-01],-42%
2,O=C(Cc1ccc(Cl)c(Cl)c1)Nc1ccc(S(=O)(=O)Nc2ccon2)cc1.O=C(O)C(F)(F)F [NCGC00244858-03],-27%

# Same assay, conditions: qHTS primary screen hits, Table S2; negative sign = inhibitory curve
row,SMILES,Curve Class
1,O=C(Cc1ccc(Cl)c(Cl)c1)Nc1ccc(S(=O)(=O)Nc2ccon2)cc1.O=C(O)C(F)(F)F [NCGC00244858-03],-1.4

# Same assay, conditions: qHTS primary screen hits, Table S2; negative sign = inhibitory curve; several classes where COUNT > 1
row,Curve Class,SMILES
1,-2.2,Cc1ccc(Cl)cc1NC(=O)c1nc[nH]c1C(=O)Nc1nc2ccccc2[nH]1 [NCGC00244259-01]

# Same assay, conditions: qHTS primary screen hits, Table S2; read-out: IC50
row,SMILES,IC50
1,Cc1ccc(Cl)cc1NC(=O)c1nc[nH]c1C(=O)Nc1nc2ccccc2[nH]1 [NCGC00244259-01],20 µM
2,O=C(Cc1ccc(Cl)c(Cl)c1)Nc1ccc(S(=O)(=O)Nc2ccon2)cc1.O=C(O)C(F)(F)F [NCGC00244858-03],3.2 µM

# Molecular target: T3, CIB1 and αIIb interaction (GST-CIB1 : F-αIIb peptide) (Homo sapiens, UniProt Q99828)
# T3 construct: made in house; host or cells: BL-21 plus RIL cells (E. coli)
# T3 sequence (Q99828 1-191): T1 sequence (Q99828 1-191)
# Assay: FP assay, 384-well format (screen)
# Format: binding
# Parameters: 384-well SCREEN Efficacy (%): concentration or dose not given beside the values
# Conditions: F-αIIb peptide
row,SMILES,384-well SCREEN Efficacy (%)
1,Cc1cc(NS(=O)(=O)c2ccc(NCCc3ccc(Cl)c(Cl)c3)cc2)no1.O=C(O)C(F)(F)F [NCGC00244100-02],42%
2,Cc1ccc(Cl)cc1NC(=O)c1nc[nH]c1C(=O)Nc1nc2ccccc2[nH]1 [NCGC00244259-01],48%
3,O=C(Cc1ccc(Cl)c(Cl)c1)Nc1ccc(S(=O)(=O)Nc2ccon2)cc1.O=C(O)C(F)(F)F [NCGC00244858-03],35%

# Same assay, conditions: F-αIIb peptide; YES/NO
row,SMILES,384-well SCREEN Confirm?
1,Cc1cc(NS(=O)(=O)c2ccc(NCCc3ccc(Cl)c(Cl)c3)cc2)no1.O=C(O)C(F)(F)F [NCGC00244100-02],YES
2,Cc1ccc(Cl)cc1NC(=O)c1nc[nH]c1C(=O)Nc1nc2ccccc2[nH]1 [NCGC00244259-01],YES
3,O=C(Cc1ccc(Cl)c(Cl)c1)Nc1ccc(S(=O)(=O)Nc2ccon2)cc1.O=C(O)C(F)(F)F [NCGC00244858-03],YES

# Same assay, conditions: F-αIIb peptide; read-out: 384-well SCREEN IC50
row,SMILES,IC50
1,Cc1cc(NS(=O)(=O)c2ccc(NCCc3ccc(Cl)c(Cl)c3)cc2)no1.O=C(O)C(F)(F)F [NCGC00244100-02],22.4 µM
2,Cc1ccc(Cl)cc1NC(=O)c1nc[nH]c1C(=O)Nc1nc2ccccc2[nH]1 [NCGC00244259-01],11.2 µM
3,O=C(Cc1ccc(Cl)c(Cl)c1)Nc1ccc(S(=O)(=O)Nc2ccon2)cc1.O=C(O)C(F)(F)F [NCGC00244858-03],8.9 µM

# Molecular target: T1, GST-CIB1 : F-scrambled peptide
# Assay: FP scrambled-peptide counter screen, 1536-well format
# Format: binding
# Conditions: scrambled-peptide counterscreen
row,SMILES,COUNTERSCREEN Efficacy (%)
1,Cc1cc(NS(=O)(=O)c2ccc(NCCc3ccc(Cl)c(Cl)c3)cc2)no1.O=C(O)C(F)(F)F [NCGC00244100-02],132%
2,Cc1ccc(Cl)cc1NC(=O)c1nc[nH]c1C(=O)Nc1nc2ccccc2[nH]1 [NCGC00244259-01],-15%
3,O=C(Cc1ccc(Cl)c(Cl)c1)Nc1ccc(S(=O)(=O)Nc2ccon2)cc1.O=C(O)C(F)(F)F [NCGC00244858-03],-10%

# Same assay, conditions: scrambled-peptide counterscreen, YES/NO call
row,SMILES,COUNTERSCREEN Confirm?
1,Cc1cc(NS(=O)(=O)c2ccc(NCCc3ccc(Cl)c(Cl)c3)cc2)no1.O=C(O)C(F)(F)F [NCGC00244100-02],YES
2,Cc1ccc(Cl)cc1NC(=O)c1nc[nH]c1C(=O)Nc1nc2ccccc2[nH]1 [NCGC00244259-01],YES
3,O=C(Cc1ccc(Cl)c(Cl)c1)Nc1ccc(S(=O)(=O)Nc2ccon2)cc1.O=C(O)C(F)(F)F [NCGC00244858-03],YES

# Same assay, conditions: scrambled-peptide counterscreen, qHTS curve class
row,SMILES,COUNTERSCREEN Curve Class
1,Cc1cc(NS(=O)(=O)c2ccc(NCCc3ccc(Cl)c(Cl)c3)cc2)no1.O=C(O)C(F)(F)F [NCGC00244100-02],3
2,Cc1ccc(Cl)cc1NC(=O)c1nc[nH]c1C(=O)Nc1nc2ccccc2[nH]1 [NCGC00244259-01],4
3,O=C(Cc1ccc(Cl)c(Cl)c1)Nc1ccc(S(=O)(=O)Nc2ccon2)cc1.O=C(O)C(F)(F)F [NCGC00244858-03],4

# Same assay, conditions: scrambled-peptide counterscreen; read-out: COUNTERSCREEN IC50
row,SMILES,IC50
1,Cc1cc(NS(=O)(=O)c2ccc(NCCc3ccc(Cl)c(Cl)c3)cc2)no1.O=C(O)C(F)(F)F [NCGC00244100-02],39.8 µM
